PMC4619319, “A potent anti-inflammatory peptide from the salivary glands of horsefly” (Parasites & Vectors, 2015)

Tests used:
TNF-α transcription = assay: LPS-stimulated TNF-α transcription in peritoneal macrophages (qPCR); format: cell-based, mouse; conditions: 20 μg/mL peptide, 100 ng/mL LPS, 6 h
Procedure: qPCR was performed using SYBR green master mix (Takara, Japan) on a Realplex Mastercycler real-time PCR system (Eppendorf, Germany) according to the manufacturer’s instruction. The gene transcription levels were normalized to GAPDH or β-actinas as illustrated in figure legends and calculated by ΔΔCt method. The accuracy of qPCR results were checked by melting curve analysis. qPCR primers were listed in Additional file 1: Table S1.
Cells were incubated with peptides (0, 5, 10, and 20 μg/mL) with or without 100 ng/mL LPS (from E. coli 0111:B4, Sigma-Aldrich, USA) for 6 h. After treatment, culture medium was collected for TNF-α, IL-1β and IL-6 quantification using enzyme-linked immunosorbent assay (ELISA) kits (Dakewei, China). Cells were washed with ice-cold PBS and lysed by Trizol reagent (Life Tech, USA). Total RNA was extracted for cDNA synthesis to quantify TNF-α, IL-1β and IL-6 transcription levels by qPCR as described in qPCR section.

P-JNK1 = assay: Western blot, LPS-induced P-JNK1 in peritoneal macrophages; format: cell-based, mouse; conditions: 20 μg/mL peptide, 100 ng/mL LPS, 30 min, band density ratio to β-actin
Procedure: (§1) Cells were treated with different concentrations of cecropin-TY1 (0, 5, 10, and 20 μg/mL) in the presence or absence of 100 ng/mL LPS (from E. coli 0111:B4, Sigma-Aldrich, USA). After 30-min incubation, cells were washed twice with ice-cold PBS and lysed with RIPA lysis buffer (Beyotime, China) on ice for 30 min according to our previous method. Protein concentration was quantified by BCA Protein Assay Kit (Thermo, Germany). About 40 μg protein was separated on a 10 % SDS-PAGE gel and transferred to a polyvinylidene difluoride membrane. The membrane was blocked by incubating with 5 % BSA (BD, USA) dissolved in Tris-buffered solution Tween-20 (TBST, 2.42 g/L Trisbase, 8 g/L NaCl, 0.1 % Tween 20, pH 7.6) for 2 h at room temperature. The membrane was then incubated with primary antibodies against ERK, phospho-ERK, p38, phospho-p38, JNK, phospho-JNK, phospho-IκBα, NF-κB p65 and phospho-NF-κB p65 (1:2000, Cell Signaling Technology, USA) and GAPDH/β-actin (1:5000, Santa Cruz Biotechnology, USA) overnight at 4 °C, respectively. After incubation, the immunoblot was washed three times with TBST for 5 min each time, and incubated with secondary antibody (1:5000, Cell Signaling Technology, USA) at room temperature for 1 h. Signals were measured by enhanced chemiluminescence kit in a dark room after washing three times with TBST for 10 min each time (TIANGEN, China).

P-ERK2 = assay: Western blot, LPS-induced P-ERK2 in peritoneal macrophages; format: cell-based, mouse; conditions: 20 μg/mL peptide, 100 ng/mL LPS, 30 min, band density ratio to β-actin
Procedure: as §1

[1] = LPS neutralization, chromogenic end-point TAL assay; format: biochemical; conditions: LPS 1 μg/mL, 37 °C, 30 min
Procedure: (§2) Fluorescein isothiocyanate (FITC)-conjugated LPS (1 μg/mL, Sigma-Aldrich, USA) was excited at 480 nm and monitored the changes in the emission of FITC-LPS at 515 nm in the incubation of different concentrations of peptides (0, 12.5, 25, 50, 100 μg/mL). Peptides were dissolved in 10 mM phosphate buffer at pH 6.0. The interactions between peptides and LPS were further assessed by a quantitative Chromogenic End-point Tachypleus amebocyte lysate (TAL) assay kit (Xiamen Houshiji, China) following the kit instruction. Briefly, different concentrations of peptides (0, 12.5, 25, 50, 100 μg/mL) were incubated with LPS (1 μg/mL, Sigma-Aldrich, USA) at 37 °C for 30 min. After incubation, 100 μL TAL solution was added to 100 μL LPS-peptide mixtures in a pyrogen-free tube and incubated at 37 °C for 10 min. Then, LPS-peptide mixtures were added with pre-warmed substrate solution for additional 6-min incubation at 37 °C. Lastly, the absorbance at 545 nm was measured on a microplate reader (Epoch Etock, BioTek, USA). The percentages of LPS-neutralizing activity were calculated.

P-ERK1 = assay: Western blot, LPS-induced P-ERK1 in peritoneal macrophages; format: cell-based, mouse; conditions: 20 μg/mL peptide, 100 ng/mL LPS, 30 min, band density ratio to β-actin
Procedure: as §1

[2] = cited from earlier work
Text: Supplement 13071_2015_1149_MOESM1_ESM.docx, table 2: Table S2. Primary structural and biochemical characteristics of cecropin-TY1. | column: […]-NH2 39 +5 3970.22 Da 3970.66 Da 11.17

[3] = Dissociation of FITC-conjugated LPS aggregates (fluorescence); format: binding; conditions: FITC-LPS 1 μg/mL, 10 mM phosphate buffer pH 6.0, ex 480 nm / em 515 nm
Procedure: as §2

nitrite production = assay: LPS-stimulated nitrite (NO) production in peritoneal macrophages; format: cell-based, mouse; conditions: 100 ng/mL LPS, 24 h
Procedure: Cells were incubated with peptides (0, 5, 10, and 20 μg/mL) in the presence or absence of LPS (100 ng/mL, from Escherichia coli 0111:B4, Sigma-Aldrich, USA). After 6-h incubation, cells in one plate were washed twice with ice-cold PBS and lysed by Trizol reagent (Life Tech, USA) for total RNA extraction. PrimeScript® Reverse Transcriptase Kit (Takara, Japan) was used to synthesize cDNA for qPCR to examine the transcription levels of inducible nitric oxide synthase (iNOS), which is necessary for NO production. After 24-h incubation, culture medium of each wells of another plate was harvested for nitrite detection, which indirectly reflected the NO production. Nitrite accumulation levels were determined by NO detection kit (Beyotime, China) following the kit instruction.

GWLKKIGKKIERVGQNVRNAAISTLPIAQGAAGVAGALN-NH2 [cecropin-TY1, cecropin antimicrobial peptide from salivary glands of horsefly Tabanus yao, 39 residues, C-terminally amidated, synthesized]
attenuation of LPS-stimulated TNF-α transcription (TNF-α transcription): 60.3%
inhibition of LPS-induced P-JNK1 expression (P-JNK1): 61.9%
inhibition of LPS-induced P-ERK2 expression (P-ERK2): 84.9%
LPS neutralized ([1]; 12.5 μg/mL peptide): 28.8%
LPS neutralized ([1]; 25 μg/mL peptide): 41.3%
LPS neutralized ([1]; 50 μg/mL peptide): 47.9%
LPS neutralized ([1]; 100 μg/mL peptide): 65.1%
inhibition of LPS-induced P-ERK1 expression (P-ERK1): 75.5%
Net charges [2]: 5
Theoretical pI ([2]; theoretical): 11.17
increase of FITC-LPS fluorescence ([3]; 12.5 μg/mL peptide): 33.4%
increase of FITC-LPS fluorescence ([3]; 25 μg/mL peptide): 46.7%
increase of FITC-LPS fluorescence ([3]; 50 μg/mL peptide): 63.3%
increase of FITC-LPS fluorescence ([3]; 100 μg/mL peptide): 71.6%
attenuation of LPS-induced nitrite production (nitrite production; 5 μg/mL peptide): about 40.0%
attenuation of LPS-induced nitrite production (nitrite production; 10 μg/mL peptide): ~63.7%
attenuation of LPS-induced nitrite production (nitrite production; 20 μg/mL peptide): ~75.0%
